# Biological target: PIK3CG (human) (UniProt P48736)
# Test: Assessment of PIK3CG Kinase Activity
# PIK3CG (human), sequence (P48736 whole entry, looked up): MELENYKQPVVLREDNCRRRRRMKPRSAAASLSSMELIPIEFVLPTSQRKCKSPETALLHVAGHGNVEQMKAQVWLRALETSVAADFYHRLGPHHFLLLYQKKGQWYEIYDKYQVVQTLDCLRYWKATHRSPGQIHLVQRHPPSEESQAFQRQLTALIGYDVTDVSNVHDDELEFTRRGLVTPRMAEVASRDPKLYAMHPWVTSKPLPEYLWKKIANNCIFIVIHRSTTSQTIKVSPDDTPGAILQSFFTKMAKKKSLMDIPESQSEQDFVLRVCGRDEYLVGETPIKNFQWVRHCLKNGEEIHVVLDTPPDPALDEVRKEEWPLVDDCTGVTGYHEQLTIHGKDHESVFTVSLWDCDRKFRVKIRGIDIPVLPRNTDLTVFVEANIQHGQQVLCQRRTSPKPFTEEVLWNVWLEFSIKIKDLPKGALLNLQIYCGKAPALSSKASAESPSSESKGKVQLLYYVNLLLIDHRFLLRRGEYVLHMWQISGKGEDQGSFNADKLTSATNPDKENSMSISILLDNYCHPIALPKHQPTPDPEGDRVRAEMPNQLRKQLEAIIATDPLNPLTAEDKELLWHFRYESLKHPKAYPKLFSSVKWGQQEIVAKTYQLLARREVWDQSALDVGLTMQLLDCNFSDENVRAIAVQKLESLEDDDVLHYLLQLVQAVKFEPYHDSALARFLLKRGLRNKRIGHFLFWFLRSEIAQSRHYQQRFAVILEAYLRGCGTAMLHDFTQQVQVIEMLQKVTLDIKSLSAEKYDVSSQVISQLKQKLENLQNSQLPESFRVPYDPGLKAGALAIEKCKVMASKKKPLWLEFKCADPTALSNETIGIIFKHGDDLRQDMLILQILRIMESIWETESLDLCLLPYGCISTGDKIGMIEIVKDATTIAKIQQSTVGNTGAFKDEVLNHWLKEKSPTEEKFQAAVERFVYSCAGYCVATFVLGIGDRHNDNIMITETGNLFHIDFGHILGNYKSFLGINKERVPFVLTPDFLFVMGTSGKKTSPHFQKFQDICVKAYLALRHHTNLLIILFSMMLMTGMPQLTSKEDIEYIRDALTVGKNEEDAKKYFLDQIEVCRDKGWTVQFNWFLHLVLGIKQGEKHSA
row,SMILES,IC50 [µM]
1,CC(=O)Nc1nc2c(s1)-c1nc(-c3cc(C#CC4CCN(S(=O)(=O)C5CC5)CC4)ccc3Cl)ncc1CC2,< 0.6
2,CC(=O)Nc1nc2c(s1)-c1nc(-c3cccc(C#CCNS(=O)(=O)N(C)C)c3)ncc1CC2,< 0.6
3,CC(=O)Nc1nc2c(s1)-c1nc(-c3cccc(C#CCNC(=O)C4CCCC4)c3)ncc1CC2,< 0.6
4,CC(=O)Nc1nc2c(s1)-c1nc(-c3cc(C#CCN4CC[S+]([O-])CC4)ccc3Cl)ncc1CC2,< 0.6
5,CCN(C)S(=O)(=O)NCC#Cc1ccc(Cl)c(-c2ncc3c(n2)-c2sc(NC(C)=O)nc2CC3)c1,< 0.6
6,CNC(=O)Nc1nc2c(s1)-c1nc(-c3cc(C#CC4(O)CCN(C5CCCC5)CC4)ccc3Cl)ncc1CC2,< 0.6
7,CNC(=O)N1CCC(C#Cc2ccc(Cl)c(-c3ncc4c(n3)-c3sc(NC(C)=O)nc3CC4)c2)CC1,< 0.6
8,CC(=O)Nc1nc2c(s1)-c1nc(-c3cc(C#CCN(C)C(=O)C4CCCC4)ccc3Cl)ncc1CC2,< 0.6
9,CC(=O)Nc1nc2c(s1)-c1nc(-c3cc(C#CCN(C)S(C)(=O)=O)ccc3Cl)ncc1CC2,< 0.6
10,CC(=O)Nc1nc2c(s1)-c1nc(-c3cc(C#CCNCc4ncccc4C)ccc3Cl)ncc1CC2,< 0.6
11,CC(=O)Nc1nc2c(s1)-c1nc(-c3cc(C#CCCN4CCC(N(C)C)CC4)ccc3Cl)ncc1CC2,< 0.6
12,CC(=O)Nc1nc2c(s1)-c1nc(-c3cc(Cl)cc(C#CCN(C)S(C)(=O)=O)c3)ncc1CC2,< 0.6
13,CC(=O)Nc1nc2c(s1)-c1nc(-c3cc(C#CCOC4CCN(C(C)=O)CC4)ccc3Cl)ncc1CC2,< 0.6
14,CC(=O)Nc1nc2c(s1)-c1nc(-c3cc(C#CCNS(=O)(=O)N(C)C)ccc3Cl)ncc1CC2,< 0.6
15,CC(=O)Nc1nc2c(s1)-c1nc(-c3cc(C#CC4(O)CCCCC4)ccc3Cl)ncc1CC2,< 0.6
16,CC(=O)Nc1nc2c(s1)-c1nc(-c3cc(C#CCNCCN4CCCC4)ccc3Cl)ncc1CC2,< 0.6
17,C=CC#Cc1ccc(Cl)c(-c2ncc3c(n2)-c2sc(NC(C)=O)nc2CC3)c1,< 0.6
18,CC(=O)Nc1nc2c(s1)-c1nc(-c3cc(C#CC4CCN(C(=O)NCC5CCCCC5)CC4)ccc3Cl)ncc1CC2,< 0.6
19,CC(=O)Nc1nc2c(s1)-c1nc(-c3cc(C#CCN(C)CC(C)C)ccc3Cl)ncc1CC2,< 0.6
20,CC(=O)Nc1nc2c(s1)-c1nc(-c3cc(C#CCn4ccnc4)ccc3Cl)ncc1CC2,< 0.6
21,CC(=O)Nc1nc2c(s1)-c1nc(-c3cc(C#CCN4CCC(C(N)=O)CC4)ccc3Cl)ncc1CC2,< 0.6
22,CC(=O)Nc1nc2c(s1)-c1nc(-c3cc(C#CC4CCN(CC5CCCC5)CC4)ccc3Cl)ncc1CC2,< 0.6

row,SMILES,IC50 [µM]
1,CC(=O)Nc1nc2c(s1)-c1nc(-c3cc(C#CCNS(N)(=O)=O)ccc3Cl)ncc1CC2,< 0.6
2,CC(=O)Nc1nc2c(s1)-c1nc(-c3cc(C#CCNC(=O)NC(C)(C)C)ccc3Cl)ncc1CC2,< 0.6
3,CC(=O)Nc1nc2c(s1)-c1nc(-c3cc(C#CCN(C)C(C)C)ccc3Cl)ncc1CC2,< 0.6
4,CC(=O)Nc1nc2c(s1)-c1nc(-c3cc(C#CCNC(=O)CC4CCN(C)CC4)ccc3Cl)ncc1CC2,< 0.6
5,CC(=O)Nc1nc2c(s1)-c1nc(-c3cc(C#CC4(O)CCN(C)CC4)ccc3Cl)ncc1CC2,< 0.6
6,CC(=O)Nc1nc2c(s1)-c1nc(-c3cc(C#CC4(N(C)C)CCCCC4)ccc3Cl)ncc1CC2,< 0.6
7,CC(=O)Nc1nc2c(s1)-c1nc(-c3cc(C#CCCO)ccc3Cl)ncc1CC2,< 0.6
8,CC(=O)Nc1nc2c(s1)-c1nc(-c3cc(C#CC(C)(C)N)ccc3Cl)ncc1CC2,< 0.6
9,CC(=O)Nc1nc2c(s1)-c1nc(-c3cc(C#CCNC(=O)CC(C)(C)C)ccc3Cl)ncc1CC2,< 0.6
10,CC(=O)Nc1nc2c(s1)-c1nc(-c3cc(C#CCCCN(C)C)ccc3Cl)ncc1CC2,< 0.6
11,CNCC#Cc1cccc(-c2ncc3c(n2)-c2sc(NC(C)=O)nc2CC3)c1,< 0.6
12,CCS(=O)(=O)N(C)CC#Cc1ccc(Cl)c(-c2ncc3c(n2)-c2sc(NC(C)=O)nc2CC3)c1,< 0.6
13,CC(=O)Nc1nc2c(s1)-c1nc(-c3cc(C#CC4CCNCC4)ccc3Cl)ncc1CC2,< 0.6
14,CC(=O)Nc1nc2c(s1)-c1nc(-c3cc(C#CCN(C)S(=O)(=O)N4CCOCC4)ccc3Cl)ncc1CC2,< 0.6
15,CNC(=O)Nc1nc2c(s1)-c1nc(-c3cc(C#CC4(OC)CCN(C)CC4)ccc3Cl)ncc1CC2,< 0.6
16,CC(=O)Nc1nc2c(s1)-c1nc(-c3cc(Cl)cc(C#CCNC(=O)CC(C)(C)C)c3)ncc1CC2,< 0.6
17,CC(=O)Nc1nc2c(s1)-c1nc(-c3cc(C#CCNC(=O)NC(C)C)ccc3Cl)ncc1CC2,< 0.6
18,CC(=O)Nc1nc2c(s1)-c1nc(-c3cc(C#CCN(C)C)ccc3Cl)ncc1CC2,< 0.6
19,CNC(=O)NCC#Cc1ccc(Cl)c(-c2ncc3c(n2)-c2sc(NC(C)=O)nc2CC3)c1,< 0.6
20,CC(=O)Nc1nc2c(s1)-c1nc(-c3cc(C#CCCCNC(C)C)ccc3Cl)ncc1CC2,< 0.6
21,CC(=O)Nc1nc2c(s1)-c1nc(-c3cc(C#CCNCC(C)(C)C)ccc3Cl)ncc1CC2,< 0.6
22,CC(=O)Nc1nc2c(s1)-c1nc(-c3cc(C#CCN(C)S(=O)(=O)CC(F)(F)F)ccc3Cl)ncc1CC2,< 0.6
